Reference: patent publication US20210116454A1, “METHODS FOR TREATING A HEMATOLOGICAL CANCER AND THE USE OF COMPANION BIOMARKERS FOR 2-(2,6-DIOXOPIPERIDIN-3-YL)-4-((2-FLUORO-4-((3-MORPHOLINOAZETIDIN-1-YL)METHYL)BENZYL)AMINO)ISOINDOLINE-1,3-DIONE” (CELGENE CORPORATION, priority 2019, published 2021)
pEC50: −log10 of the molar value. Read-outs that look alike come from different tables or passages of the source.

Columns and labels:
ZFP91 = molecular target: T1, ZFP91 (Homo sapiens, UniProt Q96JP5+Q96SW2); test: ePL-tagged substrate degradation kinetics in DF15 cells (enantiomer comparison); type: cell-based; set-up: ZFP91 Y-constant: scale not given here; conditions: for DC50: read-out: ZFP91 EC50
T1 construct: expressed in transfected cells; host or cells: DF15 cells
Experimental: In a second assay, DF15 cell lines expressing ePL-tagged target protein substrates were used as a model system to monitor protein degradation at 0.75, 1, 1.5, 3, 4, and 24 hours over a concentration range from 1 pM to 10 μM. The proteins evaluated were Ikaros (FIG. 17), Aiolos, and ZFP91. Compound 1 and Compound 2 were both able to degrade the substrate proteins at all time points (Table 9). In a further assay, additional time points were included to monitor the effect of treatment with Compound 1 and Compound 2.
The depth of substrate protein degradation described by the Y-constant was also measured in this assay against a negative control luciferase inhibitor (CC1071297, Y-constant=0).

SU-DHL-2 cells = test: Western blot of substrate degradation by each enantiomer, short time-course; type: cell-based; conditions: SU-DHL-2, within 2 hours at 1 nM
Experimental: Pure samples of each enantiomer were tested for cellular degradation of substrate proteins measured over a short time-course (FIG. 16). SU-DHL-2 cells were treated for 1, 2, and 6 hours with vehicle control (0.1% DMSO), Compound 1 (1, 10, 100 nM), or Compound 2 (1, 10, 100 nM). Western blot analysis was used to evaluate the extent of degradation of the protein substrates Aiolos, Ikaros, and ZFP91. Compound 1 inhibited Aiolos, Ikaros, and ZFP91 in as early as 1 hour of treatment with as little as 1 nM.

[1] = test system: endothelial cells, T- and B-lymphocytes, coronary smooth muscle cells, and fibroblasts; test: BioMAP Diversity PLUS Panel, antiproliferative effects; type: cell-based, human
Experimental: The BioMAP Diversity PLUS Panel was assessed after treatment with Compound 1. The X-axis lists the quantitative protein-based biomarker readouts measured in each system. The Y-axis represents a log-transformed ratio of the biomarker readouts for the drug-treated sample (n=1) over vehicle controls (n≥6). The grey region around the Y-axis represents the 95% significance envelope generated from historical vehicle controls. Biomarker activities were annotated when 2 or more consecutive concentrations change in the same direction relative to vehicle controls, are outside of the significance envelope, and have at least one concentration with an effect size >20% (log 10 ratio >0.1). Antiproliferative effects are indicated by a thick grey arrow.
(§1) The activity of Compound 1 was profiled in a panel of human primary cell-based assays, modeling complex tissue and disease biology of organs (vasculature, immune system, skin, lung) and general tissue biology using the BioMAP System (DiscoveRx, Fremont, Calif.).
The BioMAP System consists of twelve primary human monoculture or co-culture systems in stimulated and non-stimulated control conditions (FIG. 4, panel A). When tested at 0.01, 0.1, 1, and 10 μM, Compound 1 mediated changes in key biomarker activities. […]

SU-DHL-2^CRBNWT cells [2] = test: Live-cell imaging of caspase-3 activation; type: cell-based; conditions: time course of 112 hours
Experimental: To confirm the timing of induction of apoptosis and its cereblon dependency, a live-cell imager that provides kinetic, real-time caspase-3 activation (indicator of apoptosis) data was used. SU-DHL-2^CRBNWT cells treated with Compound 1 were analyzed for caspase-3 activation by following the cleavage in cells of a specific caspase-3 enzyme substrate over a time course of 112 hours. Compound 1-dependent induction of caspase-3 activity began at 12 hours post treatment and reached maximal induction at ˜72 hours (FIG. 5 D).

exhausted T cells = test: SEB-induced T-cell exhaustion restimulation assay, effector cytokine release (MSD); type: cell-based; conditions: for pEC50: T cell restimulation assay
[3] = test system: PBMCs from four healthy donors; test: Cytokine secretion by anti-CD3 stimulated PBMCs (MSD); type: cell-based
Experimental: Purified PBMCs from four healthy donors were plated on anti-CD3 antibody-coated plates to stimulate T cells and were subsequently treated with either DMSO (control) or Compound 1 at various concentrations for 3, 4, and 7 days. Secretion of cytokines was measured in supernatant fluid from PBMC cultures over time by using mesoscale (MSD) assays. Compound 1 induced IL-2 secretion at all concentrations tested.

Ikaros = Ikaros (Homo sapiens, UniProt Q13422+Q96SW2); test: Ikaros degradation in anti-CD3 stimulated PBMCs by flow cytometry; type: cell-based
Experimental: Purified PBMCs from four healthy donors were plated on anti-CD3-coated plates to stimulate T cells and subsequently treated with either DMSO (control) or Compound 1 at various concentrations. The ability of Compound 1 to promote the degradation of Ikaros was assessed over time by flow cytometry (FIG. 12).

SU-DHL-2^CRBNWT cells [4] = test: Western blot time- and concentration-response of endogenous substrates; type: cell-based; conditions: 10 and 100 nM, entire course of treatment
Excerpt: (§2) However, Compound 1 had no activity in SU-DHL-2^CRBN−/− cells, indicating the requirement of cereblon for induction of apoptosis by Compound 1 in DLBCL (FIG. 5 C).

BT system = test: BioMAP BT system (B cells and PBMCs); type: cell-based, human; conditions: 0.01, 0.1, 1, and 10 μM
Experimental: as §1
The BioMAP System consists of twelve primary human monoculture or co-culture systems in stimulated and non-stimulated control conditions (FIG. 4, panel A). When tested at 0.01, 0.1, 1, and 10 μM, Compound 1 mediated changes in key biomarker activities. Specifically, the profiles for Compound 1 reflected selective anti-inflammatory and immunomodulatory impact on monocyte (LPS) and T cell dependent B cell activation responses (BT). Treatment with Compound 1 led to a decrease in interleukin 8 (IL-8), interleukin 1a (IL-1a), secreted prostaglandin E2 (sPGE2), and secreted tumor necrosis factor alpha (sTNFα) in the LPS system, which consisted of peripheral blood mononuclear cells (PBMCs) and endothelial cells. Furthermore, secreted IgG (sIgG), secreted interleukin 17A (sIL-17A), secreted interleukin 17F (sIL-17F), and sTNFα decreased, whereas secreted interleukin 2 (sIL-2) and secreted interleukin 6 (sIL-6) increased, in the BT system, which was comprised of B cells and PBMCs.

SU-DHL-2^CRBN−/− cells = test: Western blot time- and concentration-response in cereblon knockout cells; type: cell-based
Excerpt: as §2

T1 sequence (Q96JP5 whole entry): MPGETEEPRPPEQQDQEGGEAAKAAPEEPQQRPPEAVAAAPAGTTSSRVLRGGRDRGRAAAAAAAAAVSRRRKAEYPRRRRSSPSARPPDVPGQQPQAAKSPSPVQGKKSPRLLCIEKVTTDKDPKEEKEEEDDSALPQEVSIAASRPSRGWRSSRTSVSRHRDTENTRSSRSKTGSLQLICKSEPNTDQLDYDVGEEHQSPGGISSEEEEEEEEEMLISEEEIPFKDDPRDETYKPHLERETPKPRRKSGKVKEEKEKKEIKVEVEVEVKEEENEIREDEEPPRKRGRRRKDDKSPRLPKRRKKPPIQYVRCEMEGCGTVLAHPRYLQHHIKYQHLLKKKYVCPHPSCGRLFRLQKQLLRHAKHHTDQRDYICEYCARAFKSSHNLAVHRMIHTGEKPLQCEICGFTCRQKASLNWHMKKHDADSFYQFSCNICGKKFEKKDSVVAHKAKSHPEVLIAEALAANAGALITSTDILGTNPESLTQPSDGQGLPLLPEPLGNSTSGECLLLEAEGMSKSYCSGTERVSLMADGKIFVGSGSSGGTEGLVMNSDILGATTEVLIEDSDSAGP
T1 sequence (Q96SW2 whole entry): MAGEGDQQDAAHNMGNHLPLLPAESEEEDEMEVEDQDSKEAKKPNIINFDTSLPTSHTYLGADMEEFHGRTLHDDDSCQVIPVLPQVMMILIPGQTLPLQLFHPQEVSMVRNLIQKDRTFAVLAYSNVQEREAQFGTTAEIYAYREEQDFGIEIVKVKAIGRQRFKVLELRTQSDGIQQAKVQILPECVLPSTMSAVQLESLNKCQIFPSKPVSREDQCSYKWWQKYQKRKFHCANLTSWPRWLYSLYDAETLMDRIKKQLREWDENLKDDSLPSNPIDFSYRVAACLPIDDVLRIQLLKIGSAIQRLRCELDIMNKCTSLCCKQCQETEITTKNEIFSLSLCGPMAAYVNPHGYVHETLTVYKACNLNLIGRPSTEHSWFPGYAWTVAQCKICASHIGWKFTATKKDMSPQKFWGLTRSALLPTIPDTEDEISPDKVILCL
T1 sequence (Q16531 whole entry partner): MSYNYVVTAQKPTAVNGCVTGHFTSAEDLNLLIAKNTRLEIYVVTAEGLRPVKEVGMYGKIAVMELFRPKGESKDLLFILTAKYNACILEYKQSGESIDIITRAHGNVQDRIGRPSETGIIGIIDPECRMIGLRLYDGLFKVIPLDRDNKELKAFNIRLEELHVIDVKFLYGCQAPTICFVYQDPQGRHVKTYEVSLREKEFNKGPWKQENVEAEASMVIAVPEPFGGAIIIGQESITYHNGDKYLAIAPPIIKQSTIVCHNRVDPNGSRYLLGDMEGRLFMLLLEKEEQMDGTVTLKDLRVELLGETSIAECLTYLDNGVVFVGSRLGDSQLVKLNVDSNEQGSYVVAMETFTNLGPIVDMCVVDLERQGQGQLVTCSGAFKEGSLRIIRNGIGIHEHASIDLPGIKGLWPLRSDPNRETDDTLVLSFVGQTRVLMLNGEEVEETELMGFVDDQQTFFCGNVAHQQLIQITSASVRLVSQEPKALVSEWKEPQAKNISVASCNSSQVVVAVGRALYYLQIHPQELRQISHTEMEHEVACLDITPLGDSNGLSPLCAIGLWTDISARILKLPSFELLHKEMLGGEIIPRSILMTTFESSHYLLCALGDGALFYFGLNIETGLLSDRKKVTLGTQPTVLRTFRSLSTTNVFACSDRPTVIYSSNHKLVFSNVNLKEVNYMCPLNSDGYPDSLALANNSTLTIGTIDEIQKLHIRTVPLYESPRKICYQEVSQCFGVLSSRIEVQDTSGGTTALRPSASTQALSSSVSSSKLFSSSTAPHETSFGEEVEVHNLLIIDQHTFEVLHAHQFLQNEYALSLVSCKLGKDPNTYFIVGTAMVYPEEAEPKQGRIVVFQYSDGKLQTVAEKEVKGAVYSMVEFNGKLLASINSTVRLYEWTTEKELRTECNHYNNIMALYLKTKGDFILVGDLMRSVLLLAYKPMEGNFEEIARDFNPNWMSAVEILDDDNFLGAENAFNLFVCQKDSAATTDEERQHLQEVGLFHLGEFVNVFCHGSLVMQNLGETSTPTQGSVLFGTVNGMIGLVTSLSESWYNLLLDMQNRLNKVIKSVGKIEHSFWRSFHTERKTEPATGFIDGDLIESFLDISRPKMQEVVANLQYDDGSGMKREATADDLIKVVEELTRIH
Chain of Ikaros (Q13422 whole entry): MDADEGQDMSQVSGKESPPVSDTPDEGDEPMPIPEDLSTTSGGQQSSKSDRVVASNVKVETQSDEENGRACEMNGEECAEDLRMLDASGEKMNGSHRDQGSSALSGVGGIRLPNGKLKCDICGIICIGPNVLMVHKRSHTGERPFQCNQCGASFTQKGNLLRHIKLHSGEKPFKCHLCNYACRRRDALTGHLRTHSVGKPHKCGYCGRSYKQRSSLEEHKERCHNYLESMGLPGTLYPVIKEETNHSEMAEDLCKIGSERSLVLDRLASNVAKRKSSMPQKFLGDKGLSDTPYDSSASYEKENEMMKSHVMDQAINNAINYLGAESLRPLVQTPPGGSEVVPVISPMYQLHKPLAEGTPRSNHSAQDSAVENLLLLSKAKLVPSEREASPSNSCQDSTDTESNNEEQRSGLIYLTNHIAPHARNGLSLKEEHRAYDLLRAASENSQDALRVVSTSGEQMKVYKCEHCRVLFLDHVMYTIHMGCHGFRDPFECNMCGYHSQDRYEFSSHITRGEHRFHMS
Chain of Ikaros (Q96SW2 whole entry): as the sequence (Q96SW2 whole entry) above
Chain of Ikaros (Q16531 whole entry partner): as the sequence (Q16531 whole entry partner) above

In the case of O=C1CC[C@H](N2C(=O)c3cccc(NCc4ccc(CN5CC(N6CCOCC6)C5)cc4F)c3C2=O)C(=O)N1 [Compound 1, (S)-2-(2,6-dioxopiperidin-3-yl)-4-((2-fluoro-4-((3-morpholinoazetidin-1-yl)methyl)benzyl)amino)isoindoline-1,3-dione], the “ZFP91 Y-constant” value (ZFP91; 0.75 hours) was 37, the DC50 (ZFP91; 0.75 hours) was 0.54 nM and the “ZFP91 Y-constant” value (ZFP91; 1 hour) was 28. The DC50 (ZFP91; 1 hour) was 0.36 nM, the “ZFP91 Y-constant” value (ZFP91; 1.5 hours) was 11 and the DC50 (ZFP91; 1.5 hours) was 0.36 nM. The “ZFP91 Y-constant” value (ZFP91; 3 hours) was 4.9, the DC50 (ZFP91; 3 hours) was 0.19 nM and the “ZFP91 Y-constant” value (ZFP91; 4 hours) was 4.3. For the same molecule, the DC50 (ZFP91; 4 hours) was 0.17 nM, the “ZFP91 Y-constant” value (ZFP91; 24 hours) was 2.0 and the DC50 (ZFP91; 24 hours) was 0.15 nM. For the same molecule, the “degradation of each of Aiolos, Ikaros, and ZFP91” value (SU-DHL-2 cells) was “More than 50%”, the “antiproliferative effects in BioMAP systems” value [1] was “selectively antiproliferative” and the “start of induction of caspase-3 activity post treatment” value (SU-DHL-2^CRBNWT cells [2]) was 12 h. The “time of maximal induction of caspase-3 activity” value (SU-DHL-2^CRBNWT cells [2]) was about 72 h, the pEC50 (exhausted T cells; read-out: EC50 for secreted GM-CSF levels) was 8.22 and the pEC50 (exhausted T cells; read-out: EC50 for secreted IFNγ) was 8.00. The pEC50 (exhausted T cells; read-out: EC50 for secreted TNFα) was 8.00, the GM-CSF secretion (exhausted T cells; approximately 0.001 μM for 96 hours) was 3000 pg/mL and the GM-CSF secretion (exhausted T cells; approximately 0.01 μM for 96 hours) was 10,000 pg/mL. The GM-CSF secretion plateau (exhausted T cells; concentrations greater than 0.1 μM, 96 hours) was “under 15,000 pg/mL”, the “Interleukin-2 secretion by PBMCs” value ([3]; 0.1 to 100 nM, 3, 4, and 7 days) was “increased” and the “other monitored cytokines (TNFα, IFNγ, IL-4, IL-13, IL-10, and IL-6)” value ([3]; 3, 4, and 7 days) was “Transient or no effect”. For the same molecule, the “duration of Ikaros degradation after a single treatment” value (Ikaros) was “maintained up to 7 days”, the “Ikaros in PBMCs (percentage of Ikaros positive cells)” value (Ikaros; four healthy donors) was “concentration-dependent degradation” and the “Ikaros, Aiolos, and ZFP91 protein expression” value (SU-DHL-2^CRBNWT cells [4]) was “complete suppression”. For the same molecule, the “sIL-2 and sIL-6” value (BT system) was “increased”, the “sIgG, sIL-17A, sIL-17F, and sTNFα” value (BT system) was “decreased” and the “activity in cereblon knockout cells” value (SU-DHL-2^CRBN−/− cells) was “no activity”.
